Experimental data as given in ChEMBL document CHEMBL6127021, “Inhibition of protein tyrosine phosphatase 1B by serratane triterpenes from Huperzia serrata and their molecular docking study” (Bioorg Med Chem Lett, 2024).

What was measured:
[1] = biological target: T1, Tyrosine-protein phosphatase non-receptor type 1 (Homo sapiens, UniProt P18031); test: Competitive inhibition of recombinant human PTP1B using p-NPP as substrate assessed as inhibition constant incubated for 30 mins by Lineweaver-Burk plot analysis
T1 sequence (P18031 whole entry): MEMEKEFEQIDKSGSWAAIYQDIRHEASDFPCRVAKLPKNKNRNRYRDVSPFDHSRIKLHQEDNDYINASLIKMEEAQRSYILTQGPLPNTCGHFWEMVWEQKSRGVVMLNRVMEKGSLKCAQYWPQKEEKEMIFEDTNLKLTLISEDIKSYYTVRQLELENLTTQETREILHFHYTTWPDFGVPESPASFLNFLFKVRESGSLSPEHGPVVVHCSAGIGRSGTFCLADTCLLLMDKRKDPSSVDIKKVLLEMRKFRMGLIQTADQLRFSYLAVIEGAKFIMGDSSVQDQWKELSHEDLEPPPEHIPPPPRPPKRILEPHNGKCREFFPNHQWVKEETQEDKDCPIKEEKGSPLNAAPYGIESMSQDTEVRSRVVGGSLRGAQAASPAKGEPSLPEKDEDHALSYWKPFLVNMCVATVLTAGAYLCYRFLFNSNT

[2] = biological target: T1, Tyrosine-protein phosphatase non-receptor type 1; test: Inhibition of recombinant human PTP1B using p-NPP as substrate incubated for 30 mins by absorbance based microplate reader

CC1(C)[C@@H](O)CC[C@@]2(C)[C@H]1CC[C@@]1(C)CC3=CC[C@H]4C(C)(C)[C@@H](O)CC[C@]4(C)[C@H]3CC[C@@H]12
Ki [1]: 12.2 µM | IC50 [2]: 7.28 µM

CC(=O)O[C@H]1CC[C@@]2(C)[C@@H](CC[C@@]3(C)CC4=CC[C@H]5C(C)(C)[C@@H](O)CC[C@]5(C)[C@H]4CC[C@@H]32)C1(C)C
IC50 [2]: > 30 µM

CC1(C)[C@@H](O)CC[C@@]2(C)[C@H]1CC[C@@]1(C)CC3=CC[C@H]4C(C)(C)[C@H](O)CC[C@]4(C)[C@H]3CC[C@@H]12
Ki [1]: 11.9 µM | IC50 [2]: 4.65 µM

CC(=O)O[C@H]1CC[C@@]2(C)[C@@H](CC[C@]3(O)C[C@]4(C)CC[C@H]5C(C)(C)[C@@H](O)CC[C@]5(C)[C@H]4CC[C@@H]32)C1(C)C
IC50 [2]: > 30 µM
